The series can be described thus: Plasma half-life. Type of series: in vivo. The source says: Metabolism. An advantage of diNACA over N-acetylsysteine amide (NACA) is the reduction in metabolism rate compared to NACA. DiNACA has a longer plasma half-life than NACA. The major metabolites of diNACA are NACA and N-acetylcysteine (NAC) afforded by cleavage of the sulfur bond of diNACA to yield NACA and NAC. Dosing the patient with diNACA affords high greater bioavailability in tissues like the retina and aqueous humore compared to dosing with NACA, presumably due the higher lipophilicity of diNACA compared to NACA and the resulting in vivo cleavage to two NACA-like molecules, thereby effectively increasing the half-life of NACA in the body.
Metabolism. Deuterium-inhibition of NACA metabolism. An advantage of NACA-d3 is the reduction in metabolism rate compared to the non-deuterated NACA. Non-deuterated NACA has a plasma half-life of approximately 2 hours in fasting subjects and approximately 6 hours in fed subjects. The major metabolite of NACA is N-acetylcysteine (NAC) afforded by deamidation of the primary amide functional group of NACA by tissue (e.g., plasma or other tissue) amidase. Another metabolite of NACA is cysteine afforded by (a) deamidation of the primary amide functional group of NACA by tissue (e.g., plasma or other tissue) amidase and (b) de-acetylation of the secondary amide functional group of NACA by tissue (e.g., plasma or other tissue) amidase. Replacement of the acetyl methyl group hydrogen atoms with deuterium atoms slows down the action of tissue amidases on both (primary and secondary) amide functional groups of NACA-d3, thereby prolonging its residence time in the body, i.e., increasing the half-life in the body.

Turning to `CC(=O)N[C@@H](CSSC[C@H](NC(C)=O)C(N)=O)C(N)=O` [DiNACA, (2R,2R′)-3,3′-disulfanediyl bis(2-acetamidopropanamide)], the “plasma half-life compared to NACA” value (comparison with NACA) is “longer”.
For the compound N-acetylcysteine amide [NACA], the plasma half-life entry is recorded as “approximately 2 hours” (fasting subjects) and “approximately 6 hours” (fed subjects).

(Values after patent publication US11753370B2, “Methods of making deuterium-enriched N-acetylcysteine amide (d-NACA) and (2R, 2R′)-3,3′-disulfanediyl bis(2-acetamidopropanamide) (diNACA) and using d-NACA and diNACA to treat diseases involving oxidative stress” (Nacuity Pharmaceuticals, Inc., priority 2017, dated 2023).)
